Several values for one entry are separate records, joined by “and”; a condition that tells them apart may be missing. Equal entries are not always repeated.
Columns and labels:
Format in all cases: cell-based
[1] = test system: Enterococcus faecium ISP133/04; assay: Thick cloth growth inhibition test (Example 6); conditions: commercial disc 30 μg Km; in mm
Method: (§1) This example determined qualitatively the antibacterial effect of the copper solution proposed, embedded in a matrix of thick fabric which was prepared following the procedure of the present invention. Pieces of cloth of about 2×2 cm were prepared and embedded with the product and then were deposited on a background lawn of 12 different bacteria strains.
(§2) In order to do this, it was prepared a bacterial culture of 16 hours, with the strain of interest, it was performed a 1/30 dilution of the culture with fresh medium and incubated under stirring at 37° C. until reaching the exponential growth phase (D0600 nm 0.4-0.5). It was taken an aliquot of 100 μL of the culture in exponential phase, and deposited in 4 mL of Mueller-Hinton soft agar at 0.8% (previously melted and stabilized at 50° C.). The mixture was deposited on a Petri dish with 20 mL of Mueller-Hinton agar base. Once the agar was gelled, each of the discs with different amounts of the test compound were deposited on the background lawn, and incubated at 37° C. during 48 hours.
(§3) Experiments were performed in triplicate in independently, using as negative control discs with the solvent DMSO alone and cloth without the product of study. As positive control were used commercial discs used with 30 μg of antibiotic Kanamycin (Km).

[2] = test system: Streptococcus pyogenes ATCC2367; assay: Thick cloth growth inhibition test (Example 6); conditions: commercial disc 30 μg Km; in mm
Method: as §1, §2, §3

[3] = test system: Escherichia coli ATCC25922; assay: Thick cloth growth inhibition test (Example 6); conditions: commercial disc 30 μg Km; in mm
Method: as §1, §2, §3

[4] = test system: Pseudomonas aeruginosa PAOI; assay: Thick cloth growth inhibition test (Example 6); conditions: commercial disc 30 μg Km; in mm
Method: as §1, §2, §3

[5] = test system: Enterococcus faecalis ATCC29212; assay: Thick cloth growth inhibition test (Example 6); conditions: commercial disc 30 μg Km; in mm
Method: as §1, §2, §3

[6] = test system: Staphylococcus epidermidis ATCC2S923; assay: Thick cloth growth inhibition test (Example 6); conditions: commercial disc 30 μg Km; in mm
Method: as §1, §2, §3

[7] = test system: Citrobacter freundii ISP1949/99; assay: Thick cloth growth inhibition test (Example 6); conditions: commercial disc 30 μg Km
Method: as §1, §2, §3

[8] = test system: Acinetobacter baumanii UPP4 56; assay: Thick cloth growth inhibition test (Example 6); conditions: commercial disc 30 μg Km
Method: as §1, §2, §3

[9] = test system: Staphylococcus aureus ATCC25923; assay: Thick cloth growth inhibition test (Example 6); conditions: commercial disc 30 μg Km; in mm
Method: as §1, §2, §3

[10] = test system: Enterobacter aerogenes ATCC13048; assay: Thick cloth growth inhibition test (Example 6); conditions: commercial disc 30 μg Km; in mm
Method: as §1, §2, §3

[11] = test system: Streptococcus pneumoniae ATCC14325; assay: Thick cloth growth inhibition test (Example 6); conditions: commercial disc 30 μg Km; in mm
Method: as §1, §2, §3

[12] = test system: Klebsiella pneumoniae ATCC4352; assay: Thick cloth growth inhibition test (Example 6); conditions: commercial disc 30 μg Km; in mm
Method: as §1, §2, §3

[13] = test system: Staphylococcus aureus ATCC25923; assay: Disc growth inhibition halo test (Example 2); conditions: commercial disc 30 μg Km
[14] = test system: Staphylococcus epidermidis ATCC25923; assay: Disc growth inhibition halo test (Example 2); conditions: commercial disc 30 μg Km
[15] = test system: Pseudomonas aeruginosa PAOI; assay: Disc growth inhibition halo test (Example 2); conditions: commercial disc 30 μg Km
[16] = test system: Enterococcus faecalis ATCC29212; assay: Disc growth inhibition halo test (Example 2); conditions: commercial disc 30 μg Km
[17] = test system: Streptococcus pyogenes ATCC2367; assay: Disc growth inhibition halo test (Example 2); conditions: commercial disc 30 μg Km
[18] = test system: Enterobacter aerogenes ATCC13048; assay: Disc growth inhibition halo test (Example 2); conditions: commercial disc 30 μg Km
[19] = test system: Escherichia coli ATCC25922; assay: Inhibition halos of fabrics after washing (Example 7); conditions: commercial disc 30 μg Km; in mm
Method: (§4) This example established qualitatively the antibacterial activity of matrixes in thin fabric (Fabric 1) and thick fabric (Fabric 2) embedded with the product, following the procedure described herein, and after subjected to washing. In order to do this, there were taken pieces of 2×2 cm from both fabrics, cut and washed for 2 hours with stirring using commercial laundry detergent. Subsequently, the washed fabric pieces which have the new product are dried in an oven at 40° C. for 3 hours and placed on the background lawn. In order to generate the background lawn, it was prepared a bacterial culture of 16 hours, with the strain of interest, it was performed a 1/30 dilution of the culture with fresh medium and incubated under stirring at 37° C. until reaching the exponential growth phase (D0600 nm 0.4-0.5). It was taken an aliquot of 100 μL of the culture in exponential phase, and deposited in 4 mL of Mueller-Hinton soft agar at 0.8% (previously melted and stabilized at 50° C.). The mature was deposited on a Petri dish with 20 mL of Mueller-Hinton agar base. […]
(§5) Experiments were performed in triplicate and in three independent events. From the treated plates, it was measured the zone of inhibition generated by each control and fabrics embedded with the proposed compound, which is summarized in Table 7.

[20] = test system: Staphylococcus aureus ATCC25923; assay: as above; conditions: commercial disc 30 μg Km; in mm
Method: as §4, §5

[21] = test system: Streptococcus pneumoniae ATCC14325; assay: Disc growth inhibition halo test (Example 2); conditions: commercial disc 30 μg Km
[22] = test system: Escherichia coli ATCC25922; assay: Disc growth inhibition halo test (Example 2); conditions: commercial disc 30 μg Km
[23] = test system: Enterococcus faecium ISP133/04; assay: Disc growth inhibition halo test (Example 2); conditions: commercial disc 30 μg Km
[24] = test system: Citrobacter freundii ISP1949/99; assay: Disc growth inhibition halo test (Example 2); conditions: commercial disc 30 μg Km

Question: With `NC[C@H]1O[C@H](O[C@H]2[C@H](O)[C@@H](O[C@H]3O[C@H](CO)[C@@H](O)[C@H](N)[C@H]3O)[C@H](N)C[C@@H]2N)[C@H](O)[C@@H](O)[C@@H]1O` [Km, Kanamycin] as the compound, how does the Growth inhibition zone [1] read?
Answer: Its Growth inhibition zone is 11.0 ± 0.8.

Question: And the Growth inhibition zone [2]?
Answer: The Growth inhibition zone was 6.0 ± 1.0.

Question: What about the Growth inhibition zone [3] of the same compound?
Answer: The Growth inhibition zone was 19.0 ± 0.5.

Question: What about the Growth inhibition zone [4] of the same compound?
Answer: Its Growth inhibition zone is 7.0 ± 0.5.

Question: What about the Growth inhibition zone [5] of the same compound?
Answer: Its Growth inhibition zone is 14.0 ± 1.0.

Question: And the Growth inhibition zone [6]?
Answer: The Growth inhibition zone was 24.0 ± 1.0.

Question: What about the Growth inhibition zone [7] of the same compound?
Answer: Its Growth inhibition zone is 17.0 ± 0.3.

Question: And the Growth inhibition zone [8]?
Answer: Its Growth inhibition zone is 5 mm.

Question: What about the Growth inhibition zone [9] of the same compound?
Answer: Its Growth inhibition zone is 18.0 ± 0.5.

Question: What about the Growth inhibition zone [10] of the same compound?
Answer: Its Growth inhibition zone is 12.0 ± 0.5.

Question: And the Growth inhibition zone [11]?
Answer: Its Growth inhibition zone is 10.0 ± 0.2.

Question: And the Growth inhibition zone [12]?
Answer: Its Growth inhibition zone is 18.0 ± 1.0.

Question: And the Growth inhibition zone [13]?
Answer: The Growth inhibition zone was 21 ± 2 mm and 20 ± 0.8 mm and 15 ± 0.5 mm and 19.0 mm.

Question: What about the Growth inhibition zone [14] of the same compound?
Answer: Its Growth inhibition zone is 16 + 0.5 mm and 14 + 0.7 mm and 18 ± 0.7 mm and 18.5 ± 3.5 mm.

Question: What about the Growth inhibition zone [15] of the same compound?
Answer: The Growth inhibition zone was 7 ± 1.0 mm and 9 ± 0.7 mm and 7 + 0.7 mm and 7.0 ± 1.4 mm.

Question: What about the Growth inhibition zone [16] of the same compound?
Answer: Its Growth inhibition zone is 10 mm and 15 + 0.6 mm and 15 ± 0.6 mm and 10.5 ± 0.2 mm.

Question: And the Growth inhibition zone [17]?
Answer: Its Growth inhibition zone is 5 mm and 5.0 mm.

Question: And the Growth inhibition zone [18]?
Answer: Its Growth inhibition zone is 14 + 0.5 mm and 15 ± 0.4 mm and 16 ± 0.4 mm and 19.0 ± 0.7 mm.

Question: What about the Growth inhibition zone [19] of the same compound?
Answer: Its Growth inhibition zone is 20.6 ± 0.6.

Question: What about the Growth inhibition zone [20] of the same compound?
Answer: Its Growth inhibition zone is 18.0 ± 1.4.

Question: And the Growth inhibition zone [21]?
Answer: The Growth inhibition zone was 15 ± 0.8 mm and 12.5 ± 1.2 mm and 11 ± 1 mm and 11.5 ± 0.8 mm.

Question: What about the Growth inhibition zone [22] of the same compound?
Answer: Its Growth inhibition zone is 18 ± 1.8 mm and 15 ± 0.2 mm and 18 ± 0.7 mm and 20.0 ± 0.7 mm.

Question: And the Growth inhibition zone [23]?
Answer: The Growth inhibition zone was 12.5 ± 1.2 mm and 9 ± 0.7 mm and 11.0 mm.

Question: And the Growth inhibition zone [24]?
Answer: The Growth inhibition zone was 19 ± 0.3 mm and 12 ± 0.5 mm and 15 ± 0.5 mm and 19.0 ± 0.2 mm.
